Measured values taken from US20240003908A1, “POLYOL BIOMARKERS FOR CONGENITAL DISORDERS OF GLYCOSYLATION” (Mayo Foundation for Medical Education and Research, priority 2020, published 2024).

System: child with PMM2-CDG
Assay: Single patient (P1) study: clinical efficacy (ICARS, NPCRS, BMI, weight)
Assay type: in vivo, human
Settings: same patient, five months acetazolamide before epalrestat; from 66
Protocol: Prospectively collected clinical and laboratory data in 24 PMM2-CDG patients: The genetic, laboratory, metabolic, and clinical data of 24 PMM2-CDG patients were evaluated (TABLES 2A and 2B). Disease severity was assessed by Nijmegen Pediatric CDG Rating Scale (NPCRS), (most severe=82; mild (0-14), moderate (15-25), severe (>26)) (Achouitar et al., J Inherit Metab Dis 34:923-927, 2011; and Martinez-Monseny et al., Ann Neurol 85:740-751, 2019). Patient P1 and twin patients P4 and P5 also were discussed elsewhere (Qian et al., JIMD Rep 56:27-33, 2020; and Jaeken et al., Ped Res 14:179, 1980). P1, enrolled in a single IND clinical trial, was additionally evaluated by the International cooperative ataxia rating scale (ICARS) (Trouillas et al., J Neurol Sci 145:205-211, 1997), which assesses limb ataxia, dysarthria, posture and gait disturbances, and oculomotor disorders (0=normal; 100=most severe). Urinary polyols including sorbitol and mannitol were analyzed by GC/MS in 23 out of the 24 PMM2-CDG patients (patient P6 was deceased). In addition, functional in vitro data was collected from the fibroblasts of P1-P6, P8, P10, P17, P19, and P24.
Study design: An open label, single patient (P1) compassionate use study was designed to assess the safety and tolerability of oral epalrestat therapy in a child with PMM2-CDG.
Patient assessment: Prior to the first dose of epalrestat and at 1, 2, 3, 6, 8, 9, 12 months during treatment, concomitant medications and vital signs were recorded and the patient was evaluated using the NPCRS. In addition, blood was drawn for serum chemistry, hematology, and plasma levels of epalrestat. Urine was collected for polyol measurement at baseline and twice over the course of 12 months of therapy.
Drug administration: Epalrestat was administered orally, 3 times per day (TID) before meals in a divided dose (0.8 mg/kg/day; 5 mg TID) of epalrestat (Ono Pharmaceuticals, Osaka, Japan) starting on Day 1 of the study.
Safety and efficacy: Safety measures included vital signs, change in CBC, liver function (INR, bilirubin, transaminases, and albumin) in blood, change in liver elastography, and following the pharmacokinetic profile of epalrestat. The efficacy of epalrestat was studied by clinical follow up (physical exam, NPCRS, ICARS), standard laboratory tests, and transferrin glycoform analysis by mass spectrometry.

## CC(=O)Nc1nnc(S(N)(=O)=O)s1 [acetazolamide]
  ICARS score: 56
